Data from article PMC12615485, “New dengue virus inhibitors targeting NS3-NS5 interaction identified by in silico screening” (Frontiers in Microbiology, 2025).
Where two headings read alike, the source gives them in different places.

Tests used:
[1] = biological target: NS3-NS5 interaction (NS3 f.l. binding to coated 6His-NS5_270–900) (Dengue virus type 2, UniProt P14340); assay: ELISA-based NS3-NS5 interaction assay; parameters: species or system DENV-2; settings: for IC50: read-out: In vitro activity IC50; for reduction of NS3-NS5 interaction: at the tested concentrations; for inhibition at 100 µM: fixed concentration of 100 μM, compared with DMSO control
Procedure: Nunc Maxisorp microplates (Thermo Fisher Scientific) were coated with 400 ng/well of 6His-NS5_270–900, or GST protein as a control, in PBS for 3 h at 37 °C and then blocked with 5% (wt/v) bovine serum albumin (BSA, Merck Life Science) in PBS overnight at 4 °C. Blocked wells were incubated at room temperature (RT) for 2 h with increasing amounts of NS3 f.l. or GST–NS3_172–618. 6His-NS5_270–900-coated plates were also incubated with increasing concentration of GST, as a control. After washing with PBS containing 0.3% Tween 20 (Fisher Scientific, Waltham, MA, United States), the NS3-NS5 interaction was detected by incubating the plates with the anti-NS3 monoclonal antibody (GT2811 clone, Genetex, Irvine, CA, United States) diluted 1:6,000 in PBS + 2% (v/v) FBS (Thermo Fisher Scientific) for 1 h at RT. The unbound primary antibody was removed by further washes with PBS + 0.3% Tween 20 and the secondary goat anti-mouse HRP-conjugated antibody (GenScript Biotech) at a dilution of 1:8,000 in PBS + 2% FBS was then added. After incubation for 1 h at RT and following washes, the colorimetric substrate 3,3′,5,5′-tetramethylbenzidine (TMB, SeraCare Life Sciences, Milford, MA, United States) was added to each well and absorbance was read at 450 nm by an ELISA plate reader (Tecan Infinite 200 PRO, Mannedorf, Switzerland).
To test the inhibitory effect of compounds on NS3-NS5 interaction, 6His-NS5_270–900-coated wells were incubated with a fixed amount of NS3 f.l. (200 ng) along with increasing concentrations of test compounds or DMSO as a control. To exclude non-specific inhibition of compounds due to colloidal aggregation, the inhibitory activities of compounds were tested in the presence or the absence of 0.002% Triton X-100 (Fisher Scientific), a condition which reverses and prevents the colloidal formation of organic molecules ([McGovern et al., 2003]). All the compound concentrations were tested at least in duplicate.

[2] = tested on: DENV-2 NGC strain; assay: Plaque reduction assay (PRA) in Vero cells; assay type: cell-based; settings: for EC50: PRA in Vero cells, read-out: Antiviral activity EC50; for SI (selectivity index): ratio between CC50 and EC50
[3] = tested on: Vero cells
[4] = MTT cytotoxicity assay; settings: African green monkey, Vero cells
[5] = tested on: Vero cells; assay: MTT cytotoxicity assay; settings: read-out: Cytotoxicity CC50; best analogues of hit 3, in-house synthesized hit 3 as control; MTT in Vero cells at 72 h
[6] = analogues of hit 3, in-house synthesized hit 3 as control, 50% inhibition of NS3-NS5 binding in ELISA
[7] = best analogues of hit 3, in-house synthesized hit 3 as control, NGC strain
[8] = Dengue virus, DENV2, Vero, selected hits, 50% inhibition of viral plaque formation, DENV-2
[9] = selected hits, concentration that decreased the NS3-NS5 binding by 50% in ELISA

## O=C(NNC(=S)Nc1ccc([N+](=O)[O-])cc1)c1ccccc1O [Compound 67]
[1]; [6]
  IC50: > 200 µM
[1]
  reduction of NS3-NS5 interaction: < 50%

## O=C(NNC(=S)Nc1ccc(Cl)cc1Cl)c1ccccc1O [Compound 51]
[1]; [6]
  IC50: 97.2 ± 24.3 µM

## Cc1ccc(NC(=O)NNC(=O)c2ccccc2O)cc1 [Compound 79]
[1]; [6]
  IC50: 13.9 ± 6.5 µM

## CCOC(=O)c1ccc(NC(=S)NNC(=O)c2ccccc2O)cc1 [Compound 54]
[1]; [6]
  IC50: 31 ± 18.3 µM

## Cc1ccc(NC(=S)NNC(=O)c2ccc(C(C)(C)C)cc2)cc1 [Compound 72]
[2]; [7]
  EC50: 2.8 ± 1.9 µM
[3]
  CC50: 211 ± 20 µM

## Cc1ccc(NC(=S)NNC(=O)c2ccc(O)cc2)cc1 [Compound 62]
[1]; [6]
  IC50: > 200 µM
[1]
  reduction of NS3-NS5 interaction: < 50%

## Cc1ccc(NC(=S)NNC(=O)c2ccccc2)cc1 [Compound 57]
[1]; [6]
  IC50: 55.6 ± 22.7 µM

## CC(C)C[C@H](NC(=O)[C@H](C)NC(=O)[C@H](CC(C)C)NC(=O)[C@@H](NC(=O)[C@H](CCC(N)=O)NC(=O)[C@@H](NC(=O)[C@H](CCC(=O)O)NC(=O)[C@H](CCC(=O)O)NC(=O)CNC(=O)[C@H](CCC(=O)O)NC(=O)[C@H](CCCCN)NC(=O)[C@H](Cc1c[nH]c2ccccc12)NC(=O)[C@H](CCC(=O)O)NC(=O)CNC(=O)[C@@H](N)CCC(=O)O)C(C)C)C(C)C)C(=O)O [NS3_86–100 peptide, reference compound]
[1]; up to 480 μM
  inhibitory effect on NS3-NS5 interaction: no inhibitory effect

## N#Cc1cn[nH]c1NCc1ccc(OCc2ccccc2)cc1O [Hit 50]
[2]; [8]
  EC50: 13.4 ± 1.8 µM
[2]; selected hits
  SI (selectivity index): >19
[1]
  inhibition at 100 µM: ≥ 50%
[1]; [9]
  IC50: 32 ± 6.7 µM
[4]
  CC50 at 72 h: > 250 µM

## O=C(NCc1ncc(-c2ccccc2)[nH]1)Nc1ccncc1F [Hit 30]
[2]; [8]
  EC50: 24.6 ± 5.9 µM
[1]
  inhibition at 100 µM: ≥ 50%
[1]; [9]
  IC50: 44.6 ± 8.1 µM
[4]
  CC50 at 72 h: > 250 µM

## Cc1ccc(NC(=S)NNC(=O)c2ccccc2F)cc1 [Compound 58]
[1]; [6]
  IC50: 21.3 ± 7.9 µM

## N#Cc1nc2c(-c3nc4ccccc4[nH]3)c(N)n(Cc3ccco3)c2nc1C#N [Hit 47]
[2]; [8]
  EC50: 53.5 ± 6.9 µM
[2]; selected hits
  SI (selectivity index): >5
[1]
  inhibition at 100 µM: ≥ 50%
[1]; [9]
  IC50: 16.9 ± 2.5 µM
[4]
  CC50 at 72 h: > 250 µM

## CN(C)c1ccc(NC(=S)NNC(=O)c2ccccn2)cc1 [Compound 69]
[2]; [7]
  EC50: 12.4 ± 5.8 µM
[3]
  CC50: 72 ± 17.2 µM
[1]; IC50 of 1.0 μM versus 15.6 μM
  fold lower IC50 than hit 3: 15 fold

## Cc1ccc(NC(=S)NNC(=O)c2ccc(C(F)(F)F)cc2)cc1 [Compound 55]
[1]; [6]
  IC50: 118 ± 23 µM

## Cc1ccc(NC(=S)NNC(=O)c2ccc(C(F)(F)F)cc2C(F)(F)F)cc1 [Compound 73]
[1]; [6]
  IC50: > 200 µM
[1]
  reduction of NS3-NS5 interaction: < 50%

## Cc1ccc(Nc2nc(-c3ccccc3O)cs2)cc1 [Compound 78]
[1]; [6]
  IC50: > 200 µM
[1]
  reduction of NS3-NS5 interaction: < 50%

## COc1ccc(NC(=S)NNC(=O)c2ccccc2O)cc1 [Compound 74]
[1]; [6]
  IC50: > 200 µM
[1]
  reduction of NS3-NS5 interaction: < 50%

## O=C(NNC(=S)Nc1ccccc1)c1ccccc1O [Compound 53]
[1]; [6]
  IC50: 82.7 ± 21.5 µM

## CN(C)c1ccc(NC(=S)NNC(=O)c2ccco2)cc1 [Compound 71]
[1]; [6]
  IC50: 11.6 ± 2.6 µM

## Cc1ccc(NC(=S)NNC(=O)c2cccs2)cc1 [Compound 65]
[1]; [6]
  IC50: 64.9 ± 19.5 µM

## NC(=O)COc1ccc(CNC(=O)Nc2ccc(Cl)cc2)cc1 [Hit 29]
[2]; [8]
  EC50: 34.3 ± 9.4 µM
[2]; selected hits
  SI (selectivity index): 1
[1]
  inhibition at 100 µM: ≥ 50%
[1]; [9]
  IC50: 142 ± 26 µM
[4]
  CC50 at 72 h: 35.7 ± 4.9 µM

## COc1ccccc1C(=O)NNC(=S)Nc1ccc(C)cc1 [Compound 56]
[1]; [6]
  IC50: 21.2 ± 3.4 µM

## CN(C)c1ccc(NC(=S)NNC(=O)c2cccs2)cc1 [Compound 70]
[1]; [6]
  IC50: 25.3 ± 5.4 µM

## O=C(NCc1nc2ccccc2[nH]1)c1ccc2[nH]nnc2c1 [Hit 1]
[2]; [8]
  EC50: > 100 µM
[2]; selected hits
  SI (selectivity index): >3
[1]
  inhibition at 100 µM: ≥ 50%
[1]; [9]
  IC50: 85.9 ± 14.5 µM
[4]
  CC50 at 72 h: > 250 µM

## Cc1ccc(NC(=S)NNC(=O)c2ccc(C#N)cc2)cc1 [Compound 77]
[1]; [6]
  IC50: > 200 µM
[1]
  reduction of NS3-NS5 interaction: < 50%

## CC(C)(C)c1ccc(NC(=S)NNC(=O)c2ccccc2O)cc1 [Compound 76]
[1]; [6]
  IC50: 6.3 ± 2.2 µM

## Cc1ccc(NC(=S)NNC(=O)c2cccc(O)c2)cc1 [Compound 61]
[1]; [6]
  IC50: > 200 µM
[1]
  reduction of NS3-NS5 interaction: < 50%

## Cc1ccc(NC(=S)NNC(=O)c2ccc(C)cc2)cc1 [Compound 60]
[1]; [6]
  IC50: 149 ± 21 µM

## Cc1ccc(NC(=S)NNC(=O)c2ccccc2C)cc1 [Compound 59]
[1]; [6]
  IC50: 29 ± 6.9 µM

## Cc1ccc(NC(=S)NNC(=O)c2ccc(O)cc2O)cc1 [Compound 63]
[1]; [6]
  IC50: 172 ± 31 µM

## Cc1nc(NC(=O)c2ccc(C(N)=O)cc2)sc1SCC#N [Hit 6]
[2]; [8]
  EC50: 98.8 ± 10.4 µM
[2]; selected hits
  SI (selectivity index): >3
[1]
  inhibition at 100 µM: ≥ 50%
[1]; [9]
  IC50: 51.4 ± 10.3 µM
[4]
  CC50 at 72 h: > 250 µM

## Cc1ccc(C(=O)Nc2cc(-c3cccc(F)c3F)n[nH]2)c(=O)[nH]1 [Hit 4]
[2]; [8]
  EC50: > 10 µM
[2]; selected hits
  SI (selectivity index): 1
[1]
  inhibition at 100 µM: ≥ 50%
[1]; [9]
  IC50: 18.7 ± 2.1 µM
[4]
  CC50 at 72 h: 12.7 ± 4 µM

## N#Cc1ccc(NC(=S)NNC(=O)c2ccccc2O)cc1 [Compound 75]
[1]; [6]
  IC50: 40.3 ± 8.3 µM

## N=c1c2cnn(-c3ccccc3)c2ncn1NC(=S)Nc1ccccc1 [Hit 15]
[2]; [8]
  EC50: > 100 µM
[2]; selected hits
  SI (selectivity index): >3
[1]
  inhibition at 100 µM: ≥ 50%
[1]; [9]
  IC50: 123 ± 16 µM
[4]
  CC50 at 72 h: > 250 µM

## CN(C)c1ccc(NC(=S)NNC(=O)c2ccccc2O)cc1 [Compound 66]
[1]; [6]
  IC50: 12.5 ± 4.1 µM

## O=C(CCc1ccccn1)Nc1ccc2[nH]nnc2c1 [Hit 44]
[2]; [8]
  EC50: 97.4 ± 12.6 µM
[2]; selected hits
  SI (selectivity index): >1
[1]
  inhibition at 100 µM: ≥ 50%
[1]; [9]
  IC50: 78.5 ± 16.4 µM
[4]
  CC50 at 72 h: > 100 µM

## Cc1ccc(NC(=S)NNC(=O)c2ccccn2)cc1 [Compound 64]
[2]; [7]
  EC50: 2.1 ± 1.6 µM
[5]
  CC50: 39.6 ± 10.2 µM

## COc1ccc(C(=O)NNC(=S)Nc2ccccc2)cc1 [Compound 52]
[1]; [6]
  IC50: 167 ± 29 µM

## Cc1ccc(NC(=S)NNC(=O)c2ccco2)cc1 [Compound 68]
[1]; [6]
  IC50: 20.1 ± 7.5 µM
